Measured values reported in the supplement of paper PMC4862054.

Columns and labels:
Test in all cases: normalised response (% of control), CellTox Green; higher = less cell death (100 = DMSO, 0 = benzethonium chloride kill control)
Conditions in all cases: incubation time: 72 h
BT-474 = system: BT-474
In short: (§1)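 Plates were normalised with 0.1 % DMSO as 100 and a positive kill control as 0. Breast cancer cell lines in 20 µl suspension had been seeded into 384-well plates with compound at 5 concentrations in 10-fold steps over a compound-specific 10,000-fold range, incubated 72 h, and read for CellTox Green fluorescence (485/520 nm) followed by CellTiter-Glo luminescence. Each value is the normalised signal at a single concentration.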

CAL-120 = system: CAL-120
In short: as §1

CAL-148 = system: CAL-148
In short: as §1

CAL-85-1 = system: CAL-85-1
In short: as §1

DU-4475 = system: DU-4475
In short: as §1

HCC1143 = system: HCC1143
In short: as §1

HCC1599 = system: HCC1599
In short: as §1

HCC1937 = system: HCC1937
In short: as §1

HDQ-P1 = system: HDQ-P1
In short: as §1

Hs578T = system: Hs578T
In short: as §1

MCF-10A = system: MCF-10A
In short: as §1

MDA-MB-231 = system: MDA-MB-231
In short: as §1

MDA-MB-436 = system: MDA-MB-436
In short: as §1

MDA-MB-453 = system: MDA-MB-453
In short: as §1

MDA-MB-468 = system: MDA-MB-468
In short: as §1

MFM-223 = system: MFM-223
In short: as §1

BT-549 = system: BT-549
In short: as §1

## Cn1c(Nc2ccc(C(F)(F)F)cc2)nc2cc(Oc3ccnc(-c4ncc(C(F)(F)F)[nH]4)c3)ccc21 [RAF265] (100 nM)
BT-474
  normalised response: 100%
CAL-120
  normalised response: 100%
CAL-148
  normalised response: 107%
CAL-85-1
  normalised response: 86.3%
DU-4475
  normalised response: 105%
HCC1143
  normalised response: 96.9%
HCC1599
  normalised response: 98.6%
HCC1937
  normalised response: 109%
HDQ-P1
  normalised response: 113%
Hs578T
  normalised response: 107%
MCF-10A
  normalised response: 107%
MDA-MB-231
  normalised response: 114%
MDA-MB-436
  normalised response: 94.9%
MDA-MB-453
  normalised response: 105%
MDA-MB-468
  normalised response: 115%
MFM-223
  normalised response: 102%

## Cn1c(Nc2ccc(C(F)(F)F)cc2)nc2cc(Oc3ccnc(-c4ncc(C(F)(F)F)[nH]4)c3)ccc21 [RAF265] (1000 nM)
BT-474
  normalised response: 98.1%
BT-549
  normalised response: 81.7%
CAL-120
  normalised response: 100%
CAL-148
  normalised response: 80.4%
CAL-85-1
  normalised response: 55.5%
DU-4475
  normalised response: 99.4%
HCC1143
  normalised response: 122%
HCC1599
  normalised response: 110%
HCC1937
  normalised response: 82%
HDQ-P1
  normalised response: 109%
Hs578T
  normalised response: 118%
MCF-10A
  normalised response: 75.4%
MDA-MB-231
  normalised response: 113%
MDA-MB-436
  normalised response: 107%
MDA-MB-453
  normalised response: 102%
MDA-MB-468
  normalised response: 145%
MFM-223
  normalised response: 21.6%

## CN[C@@H]1C[C@H]2O[C@@](C)([C@@H]1OC)n1c3ccccc3c3c4c(c5c6ccccc6n2c5c31)C(=O)N[C@H]4O [UCN-01] (1000 nM)
BT-474
  normalised response: 70.9%
BT-549
  normalised response: 78.7%
CAL-120
  normalised response: 59.7%
CAL-148
  normalised response: 89.2%
CAL-85-1
  normalised response: 29.5%
DU-4475
  normalised response: 78.3%
HCC1143
  normalised response: 53.2%
HCC1599
  normalised response: 79.3%
HCC1937
  normalised response: 106%
HDQ-P1
  normalised response: 63.7%
Hs578T
  normalised response: 47.3%
MCF-10A
  normalised response: -24.5%
MDA-MB-231
  normalised response: 32.6%
MDA-MB-436
  normalised response: 94.5%
MDA-MB-453
  normalised response: 91.4%
MDA-MB-468
  normalised response: 59.7%
MFM-223
  normalised response: 67.8%

## CN[C@@H]1C[C@H]2O[C@@](C)([C@@H]1OC)n1c3ccccc3c3c4c(c5c6ccccc6n2c5c31)C(=O)N[C@H]4O [UCN-01] (10000 nM)
BT-474
  normalised response: 24.5%
BT-549
  normalised response: 43.8%
CAL-120
  normalised response: 18.1%
CAL-148
  normalised response: 40.4%
CAL-85-1
  normalised response: -33.4%
DU-4475
  normalised response: 76.1%
HCC1143
  normalised response: 72%
HCC1599
  normalised response: 80.9%
HCC1937
  normalised response: 95.6%
HDQ-P1
  normalised response: 43.6%
Hs578T
  normalised response: -27.6%
MCF-10A
  normalised response: -57.5%
MDA-MB-231
  normalised response: 1.94%
MDA-MB-436
  normalised response: 83.2%
MDA-MB-453
  normalised response: 78.3%
MDA-MB-468
  normalised response: 180%
MFM-223
  normalised response: 78.1%

## Clc1ccc(Nc2nnc(Cc3ccncc3)c3ccccc23)cc1 [Vatalanib] (1000 nM)
BT-474
  normalised response: 97.2%
BT-549
  normalised response: 137%
CAL-120
  normalised response: 92.8%
CAL-148
  normalised response: 98.1%
CAL-85-1
  normalised response: 104%
DU-4475
  normalised response: 101%
HCC1143
  normalised response: 64.7%
HCC1599
  normalised response: 104%
HCC1937
  normalised response: 134%
HDQ-P1
  normalised response: 105%
Hs578T
  normalised response: 105%
MCF-10A
  normalised response: 84.5%
MDA-MB-231
  normalised response: 118%
MDA-MB-436
  normalised response: 102%
MDA-MB-453
  normalised response: 104%
MDA-MB-468
  normalised response: 138%
MFM-223
  normalised response: 103%

## Clc1ccc(Nc2nnc(Cc3ccncc3)c3ccccc23)cc1 [Vatalanib] (10000 nM)
BT-474
  normalised response: 102%
BT-549
  normalised response: 118%
CAL-120
  normalised response: 102%
CAL-148
  normalised response: 53.2%
CAL-85-1
  normalised response: 76.8%
DU-4475
  normalised response: 107%
HCC1143
  normalised response: 125%
HCC1599
  normalised response: 114%
HCC1937
  normalised response: 123%
HDQ-P1
  normalised response: 114%
Hs578T
  normalised response: 78.7%
MCF-10A
  normalised response: 55.9%
MDA-MB-231
  normalised response: 129%
MDA-MB-436
  normalised response: 107%
MDA-MB-453
  normalised response: 105%
MDA-MB-468
  normalised response: 86.5%
MFM-223
  normalised response: 97.1%

## CCC1=C[C@@H]2CN(C1)Cc1c([nH]c3ccccc13)[C@@](C(=O)OC)(c1cc3c(cc1OC)N(C)[C@H]1[C@@](O)(C(=O)OC)[C@H](OC(C)=O)[C@]4(CC)C=CCN5CC[C@]31[C@@H]54)C2 [Vinorelbine] (1000 nM)
BT-474
  normalised response: 61.2%
BT-549
  normalised response: 63.8%
CAL-120
  normalised response: 91.7%
CAL-148
  normalised response: 54.8%
CAL-85-1
  normalised response: 68.7%
DU-4475
  normalised response: 96.7%
HCC1143
  normalised response: 104%
HCC1599
  normalised response: 79.5%
HCC1937
  normalised response: 92.5%
HDQ-P1
  normalised response: -18.4%
Hs578T
  normalised response: 27.5%
MCF-10A
  normalised response: 26.6%
MDA-MB-231
  normalised response: 20.9%
MDA-MB-436
  normalised response: 76.9%
MDA-MB-453
  normalised response: 101%
MDA-MB-468
  normalised response: 98.1%
MFM-223
  normalised response: 55.2%

## Oc1nc(-c2ccc(C(F)(F)F)cc2)nc2c1CSCC2 [XAV-939] (1000 nM)
BT-474
  normalised response: 101%
BT-549
  normalised response: 106%
CAL-120
  normalised response: 102%
CAL-148
  normalised response: 101%
CAL-85-1
  normalised response: 103%
DU-4475
  normalised response: 101%
HCC1143
  normalised response: 96.1%
HCC1599
  normalised response: 100%
HCC1937
  normalised response: 114%
HDQ-P1
  normalised response: 77.1%
Hs578T
  normalised response: 88.9%
MCF-10A
  normalised response: 67.7%
MDA-MB-231
  normalised response: 102%
MDA-MB-436
  normalised response: 102%
MDA-MB-453
  normalised response: 102%
MDA-MB-468
  normalised response: 118%
MFM-223
  normalised response: 99.9%

## Oc1nc(-c2ccc(C(F)(F)F)cc2)nc2c1CSCC2 [XAV-939] (10000 nM)
BT-474
  normalised response: 103%
BT-549
  normalised response: 104%
CAL-120
  normalised response: 93.8%
CAL-148
  normalised response: 101%
CAL-85-1
  normalised response: 105%
DU-4475
  normalised response: 103%
HCC1143
  normalised response: 103%
HCC1599
  normalised response: 103%
HCC1937
  normalised response: 93.2%
HDQ-P1
  normalised response: 71.7%
Hs578T
  normalised response: 65.4%
MCF-10A
  normalised response: 103%
MDA-MB-231
  normalised response: 101%
MDA-MB-436
  normalised response: 95.5%
MDA-MB-453
  normalised response: 94.1%
MDA-MB-468
  normalised response: 115%
MFM-223
  normalised response: 101%
